Measured values taken from PubChem BioAssay AID1053145 (Broad Institute, 2014).
The source made the active and inactive calls. How the calls were made is not given here.

System: HepG2 viability, CellTiter-Glo ATP luminescence, overnight
Assay: cytotoxicity in HepG2 hepatoma cells – cell-based, ATP luminescence, cherry-pick, cytotoxicity control for Trib1 inducer project, dose response (AID 1053145)

Q: `CN1C(=O)c2cc(NC(=O)c3ccc(C(F)(F)F)cc3)ccc2OC[C@@H]2O[C@@H](CC(=O)NC3Cc4ccccc4C3)CC[C@@H]21` was tested. Which AC50 did it give?
A: Its AC50 is > 25 µM (inactive).

Q: With `CN1C(=O)c2cc(NC(=O)c3ccc(C(F)(F)F)cc3)ccc2OC[C@@H]2O[C@H](CC(=O)NC3Cc4ccccc4C3)CC[C@@H]21` as the molecule, how does the AC50 read?
A: Its AC50 is > 25 µM (inactive).
